Experimental data published in the supplement of paper PMC10307832.

Tests used:
Experiment in all cases: relative viability (nuclei count vs DMSO), 5 days (fraction); higher = more cells survive
Fedratinib + Phenformin = compound: Cc1cnc(Nc2ccc(OCCN3CCCC3)cc2)nc1Nc1cccc(S(=O)(=O)NC(C)(C)C)c1 [Fedratinib] + N=C(N)NC(=N)NCCc1ccccc1 [Phenformin] (partner 250 µM)
In short: (§1)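 Nuclei were stained with Hoechst during a one-step fixation (final 0.05% Triton X-100, 1% formaldehyde, 1 ug/ml Hoechst) carried out 5 days after dosing, then counted on 4× images. The cells, lung cancer lines in 1536-well plates, had been dosed by pin tool the day after seeding with one drug alone or a fixed anchor-drug dose plus five library-drug doses (not always all listed) in √10 steps. Relative viability is the nuclei count in treated wells divided by that in vehicle wells, and each value is the median of duplicate plates.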

GW-2580 + AZD7762 = compound: COC1=CC=C(C=C1)COC2=C(C=C(C=C2)CC3=CN=C(N=C3N)N)OC [GW-2580] + NC(=O)Nc1cc(-c2cccc(F)c2)sc1C(=O)N[C@H]1CCCNC1 [AZD7762] (partner 0.2 µM)
In short: as §1

GW-2580 + Luminespib = compound: COC1=CC=C(C=C1)COC2=C(C=C(C=C2)CC3=CN=C(N=C3N)N)OC [GW-2580] + CCNC(=O)c1noc(-c2cc(C(C)C)c(O)cc2O)c1-c1ccc(CN2CCOCC2)cc1 [Luminespib] (partner 0.01 µM)
In short: as §1

GW-2580 + Trametinib = compound: COC1=CC=C(C=C1)COC2=C(C=C(C=C2)CC3=CN=C(N=C3N)N)OC [GW-2580] + CC(=O)Nc1cccc(-n2c(=O)n(C3CC3)c(=O)c3c(Nc4ccc(I)cc4F)n(C)c(=O)c(C)c32)c1 [Trametinib] (partner 0.02 µM)
In short: as §1

Fedratinib + Olaparib = compound: Cc1cnc(Nc2ccc(OCCN3CCCC3)cc2)nc1Nc1cccc(S(=O)(=O)NC(C)(C)C)c1 [Fedratinib] + O=C(c1cc(Cc2n[nH]c(=O)c3ccccc23)ccc1F)N1CCN(C(=O)C2CC2)CC1 [Olaparib] (partner 8 µM)
In short: as §1

| Cell Line | relative viability (Fedratinib + Phenformin; first compound 0.1 µM) | relative viability (Fedratinib + Phenformin; first compound 0.3162 µM) | relative viability (Fedratinib + Phenformin; first compound 1 µM) | relative viability (GW-2580 + AZD7762; first compound 0.08 µM) | relative viability (GW-2580 + AZD7762; first compound 0.8 µM) | relative viability (GW-2580 + AZD7762; first compound 2.53 µM) | relative viability (GW-2580 + AZD7762; first compound 8 µM) | relative viability (GW-2580 + Luminespib; first compound 0.08 µM) | relative viability (GW-2580 + Luminespib; first compound 0.8 µM) | relative viability (GW-2580 + Luminespib; first compound 2.53 µM) | relative viability (GW-2580 + Luminespib; first compound 8 µM) | relative viability (GW-2580 + Trametinib; first compound 0.08 µM) | relative viability (GW-2580 + Trametinib; first compound 0.8 µM) | relative viability (GW-2580 + Trametinib; first compound 2.53 µM) | relative viability (GW-2580 + Trametinib; first compound 8 µM) | relative viability (Fedratinib + Olaparib; first compound 0.1 µM) | relative viability (Fedratinib + Olaparib; first compound 0.3162 µM) | relative viability (Fedratinib + Olaparib; first compound 1 µM) |
| --- | --- | --- | --- | --- | --- | --- | --- | --- | --- | --- | --- | --- | --- | --- | --- | --- | --- | --- |
| NCI-H23 | 0.772 | 0.81 | 0.716 | 0.264 | 0.21 | 0.243 | 0.179 | 0.226 | 0.194 | 0.213 | 0.191 | 0.398 | 0.371 | 0.404 | 0.395 | 0.286 | 0.3 | 0.289 |
| NCI-H322M | 0.722 | 0.774 | 0.436 | 0.508 | 0.706 | 0.598 | 0.531 | 0.868 | 0.887 | 0.805 | 0.903 | 0.466 | 0.485 | 0.428 | 0.59 | 0.861 | 0.772 | 0.643 |
| NCI-H358 | 0.304 | 0.323 | 0.252 | 0.588 | 0.604 | 0.516 | 0.363 | 0.34 | 0.344 | 0.364 | 0.463 | 0.149 | 0.139 | 0.131 | 0.132 | 0.62 | 0.536 | 0.44 |
| NCI-H441 | 0.812 | 0.747 | 0.727 | 1.13 | 1.26 | 1.06 | 1.08 | 0.307 | 0.621 | 0.493 | 0.293 | 0.409 | 0.463 | 0.483 | 0.374 | 0.607 | 0.481 | 0.525 |
| NCI-H460 | 0.382 | 0.516 | 0.459 | 0.595 | 0.714 | 0.383 | 0.492 | 0.0341 | 0.0427 | 0.0355 | 0.0322 | 0.286 | 0.168 | 0.0886 | 0.187 | 0.483 | 0.395 | 0.415 |
| NCI-H522 | 0.588 | 0.585 | 0.661 | 0.903 | 0.806 | 0.873 | 0.872 | 1.22 | 1.57 | 1.14 | 1.24 | 0.804 | 0.673 | 0.656 | 0.753 | 0.655 | 0.643 | 0.615 |
| NCI-H596 | 0.691 | 0.895 | 0.859 | 1.1 | 1.18 | 1.19 | 1.14 | 0.987 | 1.03 | 0.998 | 0.913 | 0.806 | 0.979 | 0.689 | 0.795 | 0.643 | 0.6 | 0.572 |
| NCI-H647 | 0.475 | 0.473 | 0.309 | 0.567 | 0.621 | 0.326 | 0.405 | 0.128 | 0.323 | 0.136 | 0.205 | 0.474 | 0.469 | 0.406 | 0.479 | 0.697 | 0.467 | 0.373 |
| NCI-H650 | 0.431 | 0.441 | 0.426 | 0.884 | 1.28 | 0.869 | 0.982 | 0.872 | 0.857 | 0.676 | 0.618 | 0.945 | 1.06 | 0.953 | 0.907 | 0.367 | 0.372 | 0.379 |
| NCI-H727 | 0.76 | 0.477 | 0.352 | 0.461 | 0.732 | 0.576 | 0.432 | – | 0.539 | 0.344 | 0.382 | 0.417 | 0.382 | 0.364 | 0.383 | 0.732 | 0.787 | 0.741 |
| NCI-H838 | 0.468 | 0.67 | 0.414 | 0.976 | 0.998 | 0.92 | 0.986 | 0.266 | 0.31 | 0.376 | 0.338 | 0.576 | 0.514 | 0.411 | 0.632 | 0.677 | 0.837 | 0.6 |
| NCI-H1355 | 0.379 | 0.467 | 0.327 | 0.807 | 0.767 | 0.566 | 0.676 | 0.816 | 0.841 | 0.694 | 0.669 | 0.469 | 0.502 | 0.35 | 0.443 | 0.771 | 0.817 | 0.699 |
| NCI-H1395 | 0.392 | 0.378 | 0.47 | 0.421 | 0.377 | 0.422 | 0.416 | 0.723 | 0.665 | 0.648 | 0.59 | 0.975 | 0.969 | 0.988 | 1.08 | 0.416 | 0.468 | 0.444 |
| NCI-H1437 | 0.318 | 0.346 | 0.349 | 1.11 | 1.09 | 1.04 | 0.995 | 1.17 | 1.16 | 1.05 | 0.786 | 0.524 | 0.571 | 0.448 | 0.415 | 0.627 | 0.645 | 0.598 |
| NCI-H1651 | 0.287 | 0.318 | 0.247 | 0.452 | 0.53 | 0.535 | 0.455 | 0.877 | 1.01 | 0.8 | 0.823 | 0.795 | 0.849 | 0.786 | 0.807 | 0.173 | 0.169 | 0.169 |
| NCI-H1666 | 0.57 | 0.575 | 0.522 | 0.824 | 1.1 | 0.852 | 0.826 | 0.984 | 1.09 | 0.918 | 0.928 | 0.846 | 0.767 | 0.796 | 0.872 | 0.792 | 0.751 | 0.747 |
| NCI-H1734 | 0.382 | 0.385 | 0.353 | 0.543 | 0.558 | 0.481 | 0.568 | 0.169 | 0.171 | 0.193 | 0.19 | 0.765 | 0.69 | 0.695 | 0.647 | 0.683 | 0.618 | 0.505 |
